In paper PMC4164441, “The Characterisation of an Alkali-Stable Maltogenic Amylase from Bacillus lehensis G1 and Improved Malto-Oligosaccharide Production by Hydrolysis Suppression” (PLoS ONE, 2014):

Target: T1, MAG1 (Shouchella lehensis, UniProt X5CPN2)
T1 construct: gene BleG1_0772; full-length ORF, 582 residues, pET21a(+) in E. coli BL21(DE3), Ni-NTA purified, tag kept (His-tag western); 68 kDa SDS-PAGE; monomer/dimer mixture; primers start MNRAGII
Experiment: DNS reducing sugar assay, Lineweaver-Burk plot
Format: biochemical
Conditions: 50 mM potassium phosphate pH 7.0, 40°C; hydrolysis; read-out: Km (mg ml^-1) (converted)
Excerpt: DNS reducing sugar assay, Lineweaver-Burk plot on MAG1

T1 sequence (X5CPN2 entry or part of it): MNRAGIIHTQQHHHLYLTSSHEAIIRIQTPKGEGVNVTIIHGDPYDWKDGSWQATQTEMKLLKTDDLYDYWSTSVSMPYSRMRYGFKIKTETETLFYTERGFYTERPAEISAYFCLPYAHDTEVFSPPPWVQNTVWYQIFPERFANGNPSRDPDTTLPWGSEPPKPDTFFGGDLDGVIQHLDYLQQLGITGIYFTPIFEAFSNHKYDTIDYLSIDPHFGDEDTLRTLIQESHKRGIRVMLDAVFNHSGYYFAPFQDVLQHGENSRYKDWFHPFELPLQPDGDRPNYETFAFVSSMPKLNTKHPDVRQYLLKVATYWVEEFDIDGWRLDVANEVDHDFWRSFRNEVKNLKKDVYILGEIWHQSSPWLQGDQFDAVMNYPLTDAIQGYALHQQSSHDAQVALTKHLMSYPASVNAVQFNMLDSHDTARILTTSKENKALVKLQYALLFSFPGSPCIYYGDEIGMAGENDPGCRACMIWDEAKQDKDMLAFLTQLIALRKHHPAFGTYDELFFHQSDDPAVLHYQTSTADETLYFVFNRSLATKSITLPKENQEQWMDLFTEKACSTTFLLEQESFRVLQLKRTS

Km: 1120 µM
SMILES: OC[C@H]1O[C@@H]2O[C@H]3[C@H](O)[C@@H](O)[C@@H](O[C@H]4[C@H](O)[C@@H](O)[C@@H](O[C@H]5[C@H](O)[C@@H](O)[C@@H](O[C@H]6[C@H](O)[C@@H](O)[C@@H](O[C@H]7[C@H](O)[C@@H](O)[C@@H](O[C@H]8[C@H](O)[C@@H](O)[C@@H](O[C@H]1[C@H](O)[C@H]2O)O[C@@H]8CO)O[C@@H]7CO)O[C@@H]6CO)O[C@@H]5CO)O[C@@H]4CO)O[C@@H]3CO [β-CD]
